Results: ChEMBL document CHEMBL5505963, “Novel berberine derivatives as p300 histone acetyltransferase inhibitors in combination treatment for breast cancer” (Eur J Med Chem, 2024)
Activity calls are given as the source filed them. The calls are words filed in the database; no cut-off is given here.

What was measured:
[1] = tested on: LNCaP; test: Antiproliferative activity against human LNCaP cells assessed as inhibition of cell growth incubated for 48 hrs by MTT assay; format: functional, cell-based
[2] = tested on: PANC-1; test: Antiproliferative activity against human PANC-1 cells assessed as inhibition of cell growth incubated for 48 hrs by MTT assay; format: functional, cell-based; conditions: PANC-1, 48 h
[3] = tested on: MCF7; test: Antiproliferative activity against human MCF7 cells assessed as inhibition of cell growth incubated for 48 hrs by MTT assay; format: functional, cell-based; conditions: MCF7, 48 h
[4] = target: Histone acetyltransferase p300 (Homo sapiens, UniProt Q09472); test: Inhibition of p300 HAT (unknown origin) using 3H-acetyl-CoA as substrate assessed as H3 peptide acetylation preincubated with compound for 15 mins followed by substrate addition and measured after 30 mins by microbeta scintillation counter analysis
[5] = tested on: MCF-10A; test: Antiproliferative activity against human MCF-10A cells assessed as inhibition of cell growth incubated for 48 hrs by MTT assay; format: functional, cell-based
[6] = tested on: MCF7; test: Antitumor activity against human MCF7 cells xenografted in BALB/c nude mouse assessed as tumor growth inhibition at 2 mg/kg, ip measured upto 14 days; format: functional; conditions: MCF7, 336 h, time <= 14 day, read-out: TGI
[7] = tested on: MCF7; test: Induction of apoptosis in human MCF7 cells assessed as upregulation of cleaved PARP level at 1 microg/ml uM incubated for 24 hrs by Western blot analysis; format: functional, cell-based; conditions: dose 1.0 µg/ml
[8] = tested on: MCF7; test: Inhibition of cell invasion in human MCF7 cells measured after 24 hrs by crystal violet staining based microscopic analysis; format: functional
[9] = tested on: MCF7; test: Induction of apoptosis in human MCF7 cells assessed as upregulation of cleaved caspase 3 level at 1 microg/ml incubated for 24 hrs by Western blot analysis; format: functional, cell-based; conditions: dose 1.0 µg/ml
[10] = tested on: MCF7; test: Downregulation of survivin level in human MCF7 cells at 1 microg/ml incubated for 24 hrs by Western blot analysis; format: functional, cell-based; conditions: dose 1.0 µg/ml
[11] = tested on: MCF7; test: Antiproliferative activity against human MCF7 cells assessed as inhibition of cell proliferation incubated for 48 hrs by MTT assay; format: functional, cell-based; conditions: MCF7, 48 h
[12] = tested on: MCF7; test: Inhibition of cell migration in human MCF7 cells assessed as reduction in scratch measured after 24 hrs by microscopic analysis; format: functional
[13] = tested on: MCF-10A; test: Antiproliferative activity against human MCF-10A cells assessed as inhibition of cell growth at 50 uM incubated for 48 hrs by MTT assay relative to control; format: functional

Histone acetyltransferase p300, sequence (Q09472 whole entry): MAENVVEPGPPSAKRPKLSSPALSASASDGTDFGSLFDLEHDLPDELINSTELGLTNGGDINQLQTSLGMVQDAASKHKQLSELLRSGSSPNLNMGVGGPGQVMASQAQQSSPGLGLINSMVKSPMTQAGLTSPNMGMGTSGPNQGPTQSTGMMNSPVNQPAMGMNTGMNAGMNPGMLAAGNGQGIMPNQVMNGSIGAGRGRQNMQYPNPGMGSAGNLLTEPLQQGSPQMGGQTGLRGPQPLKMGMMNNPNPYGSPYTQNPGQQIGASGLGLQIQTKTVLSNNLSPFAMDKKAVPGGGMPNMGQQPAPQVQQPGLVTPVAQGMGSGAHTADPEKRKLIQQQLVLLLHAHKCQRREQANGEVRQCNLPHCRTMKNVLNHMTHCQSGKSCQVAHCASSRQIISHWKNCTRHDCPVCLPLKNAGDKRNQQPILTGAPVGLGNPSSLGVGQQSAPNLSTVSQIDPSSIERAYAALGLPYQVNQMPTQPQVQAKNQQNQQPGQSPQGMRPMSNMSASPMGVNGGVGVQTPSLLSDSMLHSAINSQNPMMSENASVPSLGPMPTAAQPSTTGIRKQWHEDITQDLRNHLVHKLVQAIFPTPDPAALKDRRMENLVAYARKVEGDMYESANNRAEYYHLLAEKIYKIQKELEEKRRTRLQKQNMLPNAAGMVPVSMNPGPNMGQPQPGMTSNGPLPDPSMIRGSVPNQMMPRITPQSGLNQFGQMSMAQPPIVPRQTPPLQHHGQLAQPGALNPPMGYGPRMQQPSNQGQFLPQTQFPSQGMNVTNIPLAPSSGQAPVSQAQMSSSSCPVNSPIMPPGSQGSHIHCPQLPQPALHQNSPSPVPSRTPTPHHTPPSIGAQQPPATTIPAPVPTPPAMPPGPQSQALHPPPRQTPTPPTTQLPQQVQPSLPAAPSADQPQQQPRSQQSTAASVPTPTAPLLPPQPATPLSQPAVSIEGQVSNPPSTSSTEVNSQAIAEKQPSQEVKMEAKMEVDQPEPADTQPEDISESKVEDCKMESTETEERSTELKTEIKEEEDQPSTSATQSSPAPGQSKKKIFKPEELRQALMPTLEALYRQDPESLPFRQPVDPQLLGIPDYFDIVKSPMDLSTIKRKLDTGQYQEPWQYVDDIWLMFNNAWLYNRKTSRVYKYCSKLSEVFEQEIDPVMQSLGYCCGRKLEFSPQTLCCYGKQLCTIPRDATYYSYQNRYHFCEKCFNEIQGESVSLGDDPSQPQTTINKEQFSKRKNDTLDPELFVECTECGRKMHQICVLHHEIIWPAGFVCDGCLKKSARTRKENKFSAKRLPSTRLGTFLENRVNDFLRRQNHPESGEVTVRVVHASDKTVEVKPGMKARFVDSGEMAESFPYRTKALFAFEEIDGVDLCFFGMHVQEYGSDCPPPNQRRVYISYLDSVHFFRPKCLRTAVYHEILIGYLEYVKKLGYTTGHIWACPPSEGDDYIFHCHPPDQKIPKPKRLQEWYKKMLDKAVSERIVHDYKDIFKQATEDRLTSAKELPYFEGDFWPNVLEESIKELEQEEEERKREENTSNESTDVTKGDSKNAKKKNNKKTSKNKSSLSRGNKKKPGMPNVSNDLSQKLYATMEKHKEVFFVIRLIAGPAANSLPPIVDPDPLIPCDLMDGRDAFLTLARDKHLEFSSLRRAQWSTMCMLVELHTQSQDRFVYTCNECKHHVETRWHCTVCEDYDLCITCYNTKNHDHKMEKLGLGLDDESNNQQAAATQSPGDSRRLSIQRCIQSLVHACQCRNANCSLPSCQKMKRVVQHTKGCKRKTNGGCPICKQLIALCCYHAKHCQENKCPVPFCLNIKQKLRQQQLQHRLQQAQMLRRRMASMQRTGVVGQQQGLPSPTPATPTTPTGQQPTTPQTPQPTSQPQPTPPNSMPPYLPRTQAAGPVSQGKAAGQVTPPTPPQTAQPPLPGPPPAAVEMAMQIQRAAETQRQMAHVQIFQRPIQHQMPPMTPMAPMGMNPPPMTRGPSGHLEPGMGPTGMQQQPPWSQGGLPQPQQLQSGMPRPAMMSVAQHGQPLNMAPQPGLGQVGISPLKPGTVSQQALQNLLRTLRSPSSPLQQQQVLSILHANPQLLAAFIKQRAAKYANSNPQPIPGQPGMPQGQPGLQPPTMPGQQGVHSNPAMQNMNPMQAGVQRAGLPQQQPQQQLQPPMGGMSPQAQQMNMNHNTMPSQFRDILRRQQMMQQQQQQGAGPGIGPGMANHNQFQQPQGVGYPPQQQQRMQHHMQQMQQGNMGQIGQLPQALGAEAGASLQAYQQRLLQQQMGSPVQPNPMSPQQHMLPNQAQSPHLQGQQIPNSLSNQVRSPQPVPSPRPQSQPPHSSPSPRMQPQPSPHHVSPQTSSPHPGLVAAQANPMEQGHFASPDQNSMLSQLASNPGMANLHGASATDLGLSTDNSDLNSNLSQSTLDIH

## CNC(=O)Nc1ccc2c(c1)CC[C@@]21OC(=O)N(CC(=O)N(Cc2ccc(F)cc2)[C@@H](C)C(F)(F)F)C1=O [A-485]
[1]
  IC50: 1.7 µM
[2]
  IC50: > 30 µM
[3]
  IC50: > 30 µM

## COc1cc2cc3[n+](cc2cc1OC)CCCNc1cc2c(cc1-3)OCO2
[4]
  IC50: 9.69 µM

## COc1cc2cc3[n+](cc2cc1OC)CCOCCOc1cc2c(cc1-3)OCO2
[4]
  IC50: 5.87 µM

## COc1ccc2cc3[n+](cc2c1OC)CCCSc1cc2c(cc1-3)OCO2
[4]
  IC50: > 20 µM

## COc1ccc2cc3[n+](cc2c1OC)CCc1cc2c(cc1-3)OCO2 [BERBERINE CHLORIDE]
[1]
  IC50: > 50 µM
[2]
  IC50: > 50 µM
[5]
  IC50: > 50 µM
[4]
  IC50: 8.91 µM
[3]
  IC50: > 50 µM

## COc1ccc2cc3[n+](cc2c1OC)CCSc1cc2c(cc1-3)OCO2
[4]
  IC50: 10.3 µM

## COc1ccc2cc3[n+](cc2c1OC)CCCNc1cc2c(cc1-3)OCO2
[4]
  IC50: > 20 µM

## COc1cccc2c1C(=O)c1c(O)c3c(c(O)c1C2=O)C[C@@](O)(C(=O)CO)C[C@@H]3O[C@H]1C[C@H](N)[C@H](O)[C@H](C)O1 [DOXORUBICIN]
[6]
  inhibition in vivo at 2 mg/kg: 64.3%
[7]
  Activity: inactive
[8]
  inhibition: Active
[9]
  Activity: inactive
[10]
  Activity: Active
[11]
  IC50: 2.46 µM
[12]
  inhibition (INH): 62.43%

## COc1cc2cc3[n+](cc2cc1OC)CCSc1cc2c(cc1-3)OCO2
[1]
  IC50: 28.6 µM
[2]
  IC50: 49.5 µM
[5]
  IC50: > 50 µM
[4]
  IC50: 4.65 µM
[3]
  IC50: 34.9 µM

## COc1cc2cc3[n+](cc2cc1OC)CC(C)COc1cc2c(cc1-3)OCO2 (stereo not drawn)
[1]
  IC50: 40.7 µM
[2]
  IC50: 33.7 µM
[5]
  IC50: > 50 µM
[4]
  IC50: 4.78 µM
[13]
  inhibition at 50 µM: 77%
[3]
  IC50: 29.5 µM

## COc1ccc2cc3[n+](cc2c1OC)CCc1ccsc1-3
[4]
  IC50: > 20 µM

## COc1ccc2cc3[n+](cc2c1OC)CCc1c-3oc2ccccc12
[4]
  IC50: > 20 µM
